Test [1] has as its target T1, Urotensin-2 receptor (Homo sapiens) (UniProt Q9UKP6).
T1 sequence (whole entry): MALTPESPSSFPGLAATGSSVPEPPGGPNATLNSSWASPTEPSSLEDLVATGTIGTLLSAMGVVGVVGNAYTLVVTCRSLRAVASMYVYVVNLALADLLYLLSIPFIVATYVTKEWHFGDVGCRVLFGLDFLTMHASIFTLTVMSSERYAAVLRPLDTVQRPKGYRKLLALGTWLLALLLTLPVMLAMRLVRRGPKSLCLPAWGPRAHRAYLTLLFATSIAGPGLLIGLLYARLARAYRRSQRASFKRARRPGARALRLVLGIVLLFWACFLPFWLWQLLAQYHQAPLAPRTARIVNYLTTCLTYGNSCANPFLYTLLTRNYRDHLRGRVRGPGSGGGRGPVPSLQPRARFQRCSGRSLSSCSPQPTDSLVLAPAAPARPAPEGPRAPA
Briefly: Agonist activity at human GPR14 expressed in HEK293 cells by calcium mobilization assay relative to urotensin 2. The class given is functional, cell-based. On the technique in general: Calcium flux is commonly read through the fluorescence of an indicator in the cells.

The target in test [2] is T2, Urotensin-2 receptor (Homo sapiens, UniProt Q9UKP6).
T2 sequence (Q9UKP6 whole entry): T1 sequence (whole entry)
The test can be described thus: Agonist activity at human GPR14 expressed in HEK293 cells by calcium mobilization assay. The class given is functional, cell-based.

The text below walks through data of ChEMBL document CHEMBL1152563, “Identification of new agonists of urotensin-II from a cyclic peptide library” (Bioorg Med Chem, 2009).

pEC50: −log10 of the molar value. Peptide text beside a SMILES is read from it.

By Emax is commonly meant the size of the effect at its maximum, as opposed to the concentration needed. A word on the pEC50: it is the negative decadic logarithm of the EC50, by convention in mol/L. On to `NCCCC[C@@H]1NC(=O)[C@H](Cc2c[nH]c3ccccc23)NC(=O)[C@H](Cc2ccccc2)NC(=O)CNC(=O)[C@@H]2CCCN2C(=O)[C@H](Cc2ccccc2)NC1=O` (cyclo(FPGFWK)), for which, in test [1], the Emax came out at 101%. Also, in test [2], the pEC50 was 7.88.

With `NCCCC[C@@H]1NC(=O)[C@H](Cc2c[nH]c3ccccc23)NC(=O)[C@H](CO)NC(=O)CNC(=O)[C@@H]2CCCN2C(=O)[C@H](Cc2ccccc2)NC1=O` (cyclo(FPGSWK)), the Emax in test [1] was 96%. For the same molecule, in test [2], the pEC50 is 8.00.

For the molecule `NCCCC[C@@H]1NC(=O)[C@H](Cc2c[nH]c3ccccc23)NC(=O)[C@H](Cc2ccc(O)cc2)NC(=O)CNC(=O)[C@@H]2CCCN2C(=O)[C@H](Cc2ccccc2)NC1=O` (cyclo(FPGYWK)), the Emax in test [1] came out at 102%. Also, the pEC50 in test [2] was 7.12.

As to `NCCCC[C@@H]1NC(=O)[C@H](Cc2c[nH]c3ccccc23)NC(=O)[C@H](Cc2ccccc2)NC(=O)CNC(=O)[C@@H]2CCCN2C(=O)[C@H](Cc2c[nH]c3ccccc23)NC1=O` (cyclo(FWKWPG)), the Emax in test [1] amounted to 92%. Besides, the pEC50 in test [2] was 7.69.

Regarding `NCCCC[C@@H]1NC(=O)[C@H](Cc2c[nH]c3ccccc23)NC(=O)[C@H](Cc2ccccc2)NC(=O)CNC(=O)[C@@H]2CCCN2C(=O)[C@H](Cc2ccc(O)cc2)NC1=O` (cyclo(FWKYPG)), in test [1], the Emax is 98%. The pEC50 in test [2] was 8.16.

Regarding `NCCCC[C@@H]1NC(=O)[C@H](Cc2c[nH]c3ccccc23)NC(=O)[C@H](CO)NC(=O)CNC(=O)[C@@H]2CCCN2C(=O)[C@H](Cc2c[nH]c3ccccc23)NC1=O` (cyclo(GSWKWP)), in test [1], the Emax amounted to 100%. Moreover, in test [2], the pEC50 is 7.78.

On to `NCCCC[C@@H]1NC(=O)[C@H](Cc2c[nH]c3ccccc23)NC(=O)[C@H](CO)NC(=O)CNC(=O)[C@@H]2CCCN2C(=O)[C@H](Cc2ccc(O)cc2)NC1=O` (cyclo(GSWKYP)), for which the Emax in test [1] came out at 108%. For the same molecule, the pEC50 in test [2] is 8.07.

Take `NCCCC[C@@H]1NC(=O)[C@H](Cc2c[nH]c3ccccc23)NC(=O)[C@H](Cc2ccc(O)cc2)NC(=O)CNC(=O)[C@@H]2CCCN2C(=O)[C@H](Cc2ccc(O)cc2)NC1=O` (cyclo(GYWKYP)): the Emax in test [1] is 86%. In addition, the pEC50 in test [2] was 7.90.
